The source made the active and inactive calls.
Assays:
[1] = molecular target: T1, Sentrin-specific protease 6 (Homo sapiens, UniProt Q9GZR1); type: functional;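 further: Luminescence-based dose-response confirmatory assay of SENP6 inhibition, following up an ultra-high-throughput screen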
T1 sequence (Q9GZR1 whole entry): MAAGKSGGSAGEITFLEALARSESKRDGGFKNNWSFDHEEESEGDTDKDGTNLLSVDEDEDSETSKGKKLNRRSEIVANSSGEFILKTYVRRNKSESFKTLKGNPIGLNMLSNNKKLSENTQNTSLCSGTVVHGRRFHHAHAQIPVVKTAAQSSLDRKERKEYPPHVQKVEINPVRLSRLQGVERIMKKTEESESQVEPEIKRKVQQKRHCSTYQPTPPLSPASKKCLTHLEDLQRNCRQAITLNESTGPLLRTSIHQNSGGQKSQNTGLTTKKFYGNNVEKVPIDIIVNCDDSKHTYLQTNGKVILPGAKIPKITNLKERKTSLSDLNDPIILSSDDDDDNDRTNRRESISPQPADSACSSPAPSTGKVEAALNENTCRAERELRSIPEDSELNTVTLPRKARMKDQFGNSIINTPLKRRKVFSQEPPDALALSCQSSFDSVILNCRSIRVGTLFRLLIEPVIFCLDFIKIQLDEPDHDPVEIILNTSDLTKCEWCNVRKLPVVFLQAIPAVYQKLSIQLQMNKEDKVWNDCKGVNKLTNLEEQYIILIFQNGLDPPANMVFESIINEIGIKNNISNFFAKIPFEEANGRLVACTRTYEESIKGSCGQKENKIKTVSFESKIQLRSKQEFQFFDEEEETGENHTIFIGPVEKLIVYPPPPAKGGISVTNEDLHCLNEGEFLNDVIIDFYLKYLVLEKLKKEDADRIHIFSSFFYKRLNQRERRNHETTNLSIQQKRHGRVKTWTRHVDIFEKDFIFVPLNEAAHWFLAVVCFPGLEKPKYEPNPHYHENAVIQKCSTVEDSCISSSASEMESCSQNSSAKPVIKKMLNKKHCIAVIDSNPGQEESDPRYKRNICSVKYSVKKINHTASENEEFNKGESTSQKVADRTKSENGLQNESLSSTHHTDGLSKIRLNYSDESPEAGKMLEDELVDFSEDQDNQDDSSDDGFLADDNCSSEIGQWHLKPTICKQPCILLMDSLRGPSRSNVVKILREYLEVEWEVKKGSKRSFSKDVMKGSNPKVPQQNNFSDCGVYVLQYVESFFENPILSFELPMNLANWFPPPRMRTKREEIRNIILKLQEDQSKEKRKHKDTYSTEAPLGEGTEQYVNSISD

[2] = molecular target: T2, Sentrin-specific protease 8 (Homo sapiens, UniProt Q96LD8); type: functional;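 further: luminescence read-out of SENP8 inhibition, dose-response confirmation following an ultra-high-throughput screen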
T2 sequence (Q96LD8 whole entry): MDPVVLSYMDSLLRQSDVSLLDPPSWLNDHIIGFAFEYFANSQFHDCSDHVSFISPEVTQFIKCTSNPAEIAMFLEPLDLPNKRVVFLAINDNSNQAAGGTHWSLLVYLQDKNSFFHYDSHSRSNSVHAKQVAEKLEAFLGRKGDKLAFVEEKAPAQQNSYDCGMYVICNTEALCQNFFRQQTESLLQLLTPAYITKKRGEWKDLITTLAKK

Caspase-3 = molecular target: T3, Caspase-3 (Homo sapiens, UniProt P42574); type: functional;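 further: Dose-response selectivity test against caspase-3 for candidate inhibitors of sentrin-specific proteases (SENPs)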
T3 sequence (P42574 whole entry): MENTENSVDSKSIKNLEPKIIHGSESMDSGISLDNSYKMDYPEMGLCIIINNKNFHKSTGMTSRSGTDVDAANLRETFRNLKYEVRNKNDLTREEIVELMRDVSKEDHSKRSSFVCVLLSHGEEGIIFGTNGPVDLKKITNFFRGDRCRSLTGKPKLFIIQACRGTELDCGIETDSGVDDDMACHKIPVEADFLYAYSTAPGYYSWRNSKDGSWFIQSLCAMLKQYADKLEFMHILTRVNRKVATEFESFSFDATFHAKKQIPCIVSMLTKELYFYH

[3] = molecular target: T4, Sentrin-specific protease 7 (Homo sapiens, UniProt Q9BQF6); type: functional;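 further: Luminescence-based dose-response confirmation of ultra-high-throughput screening hits, measuring inhibition of SENP7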
T4 sequence (Q9BQF6 whole entry): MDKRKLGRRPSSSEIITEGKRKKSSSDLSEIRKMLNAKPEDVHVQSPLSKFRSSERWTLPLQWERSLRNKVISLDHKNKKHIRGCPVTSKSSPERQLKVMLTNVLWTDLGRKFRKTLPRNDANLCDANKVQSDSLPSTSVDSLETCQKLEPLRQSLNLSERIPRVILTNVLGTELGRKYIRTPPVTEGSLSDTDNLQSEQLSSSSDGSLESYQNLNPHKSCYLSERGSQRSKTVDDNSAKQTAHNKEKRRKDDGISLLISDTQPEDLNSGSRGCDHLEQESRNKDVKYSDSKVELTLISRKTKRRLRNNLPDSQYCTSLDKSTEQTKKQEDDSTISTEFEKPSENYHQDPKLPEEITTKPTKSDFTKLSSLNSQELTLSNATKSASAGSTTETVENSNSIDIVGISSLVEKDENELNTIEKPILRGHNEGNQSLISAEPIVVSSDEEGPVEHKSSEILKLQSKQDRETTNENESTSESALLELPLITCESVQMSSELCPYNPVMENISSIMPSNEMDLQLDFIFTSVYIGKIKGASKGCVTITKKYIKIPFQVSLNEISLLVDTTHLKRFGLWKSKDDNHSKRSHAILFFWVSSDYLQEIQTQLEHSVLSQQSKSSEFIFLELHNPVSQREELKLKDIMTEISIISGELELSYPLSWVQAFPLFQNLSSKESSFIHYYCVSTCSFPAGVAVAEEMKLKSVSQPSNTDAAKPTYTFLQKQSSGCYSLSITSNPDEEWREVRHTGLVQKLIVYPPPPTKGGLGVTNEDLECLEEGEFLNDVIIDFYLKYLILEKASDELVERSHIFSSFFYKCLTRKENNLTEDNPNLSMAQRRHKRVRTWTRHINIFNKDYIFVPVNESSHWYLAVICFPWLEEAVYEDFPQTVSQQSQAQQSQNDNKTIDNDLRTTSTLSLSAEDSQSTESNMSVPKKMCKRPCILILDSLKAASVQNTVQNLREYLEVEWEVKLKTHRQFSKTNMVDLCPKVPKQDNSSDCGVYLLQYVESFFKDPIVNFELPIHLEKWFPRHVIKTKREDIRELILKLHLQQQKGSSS

[4] = molecular target: T5, Apoptotic protease-activating factor 1 (Homo sapiens, UniProt O14727); type: functional
T5 sequence (O14727 whole entry): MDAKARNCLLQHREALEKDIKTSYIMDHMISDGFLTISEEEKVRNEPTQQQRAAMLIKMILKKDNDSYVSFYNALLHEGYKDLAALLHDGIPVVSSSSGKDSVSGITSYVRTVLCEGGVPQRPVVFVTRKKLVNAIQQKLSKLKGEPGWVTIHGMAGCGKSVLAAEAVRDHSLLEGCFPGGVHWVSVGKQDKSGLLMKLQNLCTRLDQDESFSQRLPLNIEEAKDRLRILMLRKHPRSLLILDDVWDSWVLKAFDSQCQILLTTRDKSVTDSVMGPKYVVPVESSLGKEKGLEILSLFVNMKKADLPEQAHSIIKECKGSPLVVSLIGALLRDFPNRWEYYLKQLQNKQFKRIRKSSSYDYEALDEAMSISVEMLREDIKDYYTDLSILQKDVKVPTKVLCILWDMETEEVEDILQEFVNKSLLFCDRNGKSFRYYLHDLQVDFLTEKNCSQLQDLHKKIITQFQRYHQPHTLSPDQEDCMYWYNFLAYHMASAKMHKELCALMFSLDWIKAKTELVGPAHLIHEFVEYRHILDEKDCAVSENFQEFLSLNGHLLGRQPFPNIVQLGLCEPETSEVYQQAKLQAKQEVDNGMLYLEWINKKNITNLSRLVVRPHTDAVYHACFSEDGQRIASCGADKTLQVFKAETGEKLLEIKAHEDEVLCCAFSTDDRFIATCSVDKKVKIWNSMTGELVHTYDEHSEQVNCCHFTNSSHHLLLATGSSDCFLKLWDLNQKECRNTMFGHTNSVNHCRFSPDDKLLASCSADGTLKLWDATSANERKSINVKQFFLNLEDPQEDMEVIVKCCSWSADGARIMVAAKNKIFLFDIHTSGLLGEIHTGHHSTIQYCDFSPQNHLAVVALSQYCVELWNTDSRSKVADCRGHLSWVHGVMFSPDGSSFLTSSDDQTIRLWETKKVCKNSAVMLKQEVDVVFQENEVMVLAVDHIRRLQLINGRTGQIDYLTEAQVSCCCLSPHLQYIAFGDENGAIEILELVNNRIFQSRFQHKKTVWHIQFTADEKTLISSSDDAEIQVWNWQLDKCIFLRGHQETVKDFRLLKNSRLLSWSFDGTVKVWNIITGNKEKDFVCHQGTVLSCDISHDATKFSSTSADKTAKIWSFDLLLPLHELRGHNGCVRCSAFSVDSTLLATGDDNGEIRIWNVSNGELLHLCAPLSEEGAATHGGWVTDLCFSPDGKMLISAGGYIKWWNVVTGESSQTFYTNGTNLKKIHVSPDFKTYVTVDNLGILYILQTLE

Beta-galactosidase = Beta-galactosidase (Escherichia coli, UniProt Q8VNN2); experiment: PubChem AID 485352; type: functional
[5] = molecular target: T6, Type-1 angiotensin II receptor (Homo sapiens, UniProt P30556); experiment: AT1 receptor antagonists, dose response, selectivity assay for APJ receptor antagonist project, cell-based, uHTS hits (AID 463214); type: functional;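 further: antagonist potency against angiotensin II stimulated AT1 response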
T6 sequence (P30556 whole entry): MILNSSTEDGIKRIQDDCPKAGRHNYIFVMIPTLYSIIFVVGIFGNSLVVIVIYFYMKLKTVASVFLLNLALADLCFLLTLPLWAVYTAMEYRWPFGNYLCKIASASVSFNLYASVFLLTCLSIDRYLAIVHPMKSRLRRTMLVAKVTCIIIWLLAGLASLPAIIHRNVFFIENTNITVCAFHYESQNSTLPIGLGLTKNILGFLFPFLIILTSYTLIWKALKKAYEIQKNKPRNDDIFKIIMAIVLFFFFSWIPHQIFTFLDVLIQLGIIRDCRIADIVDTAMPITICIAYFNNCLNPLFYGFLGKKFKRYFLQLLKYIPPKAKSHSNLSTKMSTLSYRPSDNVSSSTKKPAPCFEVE

Cytochrome P450 1A2 = molecular target: T7, Cytochrome P450 1A2 (Homo sapiens, UniProt P05177);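 further: PubChem cytochrome P450 panel assay, CYP1A2 panel member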
T7 sequence (P05177 whole entry): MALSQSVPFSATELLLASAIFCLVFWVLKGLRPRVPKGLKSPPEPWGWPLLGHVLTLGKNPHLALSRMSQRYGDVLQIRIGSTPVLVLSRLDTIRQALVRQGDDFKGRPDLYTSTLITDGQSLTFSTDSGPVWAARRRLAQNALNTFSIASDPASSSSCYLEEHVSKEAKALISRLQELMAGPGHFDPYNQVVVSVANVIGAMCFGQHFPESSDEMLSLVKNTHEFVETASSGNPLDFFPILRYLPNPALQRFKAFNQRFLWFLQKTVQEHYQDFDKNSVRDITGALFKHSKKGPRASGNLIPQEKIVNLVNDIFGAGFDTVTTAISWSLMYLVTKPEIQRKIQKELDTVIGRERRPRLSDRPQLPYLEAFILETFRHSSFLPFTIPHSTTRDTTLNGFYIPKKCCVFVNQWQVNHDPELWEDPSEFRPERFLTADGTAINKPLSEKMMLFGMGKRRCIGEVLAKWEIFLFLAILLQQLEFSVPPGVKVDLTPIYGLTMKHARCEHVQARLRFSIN

Cytochrome P450 2C9 = Cytochrome P450 2C9 (Homo sapiens, UniProt P11712)
[6] = molecular target: DNA dC->dU-editing enzyme APOBEC-3A (Homo sapiens, UniProt P31941); experiment: Dose Response confirmation of small molecule APOBEC3A DNA Deaminase Inhibitors via a fluorescence-based single-stranded DNA deaminase assay. [Related pubchem assays (depositor defined):AID493011, AID493024]; type: functional
[7] = molecular target: T8, Carboxy-terminal domain RNA polymerase II polypeptide A small phosphatase 1 (Homo sapiens, UniProt Q9GZU7); experiment: inhibitors of CTDSP1, concentration-response testing, biochemical assay, absorbance-based, actives from ultra-high-throughput screening (AID 540297); type: functional
T8 sequence (Q9GZU7 whole entry): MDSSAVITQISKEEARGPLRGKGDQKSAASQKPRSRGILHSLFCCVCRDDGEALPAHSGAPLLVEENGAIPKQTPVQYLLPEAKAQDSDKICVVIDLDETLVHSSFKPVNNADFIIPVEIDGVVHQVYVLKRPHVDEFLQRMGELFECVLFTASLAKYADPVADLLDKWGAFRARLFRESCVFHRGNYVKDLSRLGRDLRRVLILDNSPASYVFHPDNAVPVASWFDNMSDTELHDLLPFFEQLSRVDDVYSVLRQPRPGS

[8] = molecular target: DNA dC->dU-editing enzyme APOBEC-3G (Homo sapiens, UniProt Q9HC16); type: functional;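 further: Dose-response counterscreen measuring inhibition of APOBEC3G DNA deaminase activity, run while confirming APOBEC3A inhibitors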
[9] = molecular target: Voltage-dependent T-type calcium channel subunit alpha-1H (Homo sapiens, UniProt O95180); type: functional;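 further: channel activity triggered by adding a high calcium stimulation buffer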
Voltage-dependent T-type calcium channel subunit alpha-1H, sequence (O95180 whole entry): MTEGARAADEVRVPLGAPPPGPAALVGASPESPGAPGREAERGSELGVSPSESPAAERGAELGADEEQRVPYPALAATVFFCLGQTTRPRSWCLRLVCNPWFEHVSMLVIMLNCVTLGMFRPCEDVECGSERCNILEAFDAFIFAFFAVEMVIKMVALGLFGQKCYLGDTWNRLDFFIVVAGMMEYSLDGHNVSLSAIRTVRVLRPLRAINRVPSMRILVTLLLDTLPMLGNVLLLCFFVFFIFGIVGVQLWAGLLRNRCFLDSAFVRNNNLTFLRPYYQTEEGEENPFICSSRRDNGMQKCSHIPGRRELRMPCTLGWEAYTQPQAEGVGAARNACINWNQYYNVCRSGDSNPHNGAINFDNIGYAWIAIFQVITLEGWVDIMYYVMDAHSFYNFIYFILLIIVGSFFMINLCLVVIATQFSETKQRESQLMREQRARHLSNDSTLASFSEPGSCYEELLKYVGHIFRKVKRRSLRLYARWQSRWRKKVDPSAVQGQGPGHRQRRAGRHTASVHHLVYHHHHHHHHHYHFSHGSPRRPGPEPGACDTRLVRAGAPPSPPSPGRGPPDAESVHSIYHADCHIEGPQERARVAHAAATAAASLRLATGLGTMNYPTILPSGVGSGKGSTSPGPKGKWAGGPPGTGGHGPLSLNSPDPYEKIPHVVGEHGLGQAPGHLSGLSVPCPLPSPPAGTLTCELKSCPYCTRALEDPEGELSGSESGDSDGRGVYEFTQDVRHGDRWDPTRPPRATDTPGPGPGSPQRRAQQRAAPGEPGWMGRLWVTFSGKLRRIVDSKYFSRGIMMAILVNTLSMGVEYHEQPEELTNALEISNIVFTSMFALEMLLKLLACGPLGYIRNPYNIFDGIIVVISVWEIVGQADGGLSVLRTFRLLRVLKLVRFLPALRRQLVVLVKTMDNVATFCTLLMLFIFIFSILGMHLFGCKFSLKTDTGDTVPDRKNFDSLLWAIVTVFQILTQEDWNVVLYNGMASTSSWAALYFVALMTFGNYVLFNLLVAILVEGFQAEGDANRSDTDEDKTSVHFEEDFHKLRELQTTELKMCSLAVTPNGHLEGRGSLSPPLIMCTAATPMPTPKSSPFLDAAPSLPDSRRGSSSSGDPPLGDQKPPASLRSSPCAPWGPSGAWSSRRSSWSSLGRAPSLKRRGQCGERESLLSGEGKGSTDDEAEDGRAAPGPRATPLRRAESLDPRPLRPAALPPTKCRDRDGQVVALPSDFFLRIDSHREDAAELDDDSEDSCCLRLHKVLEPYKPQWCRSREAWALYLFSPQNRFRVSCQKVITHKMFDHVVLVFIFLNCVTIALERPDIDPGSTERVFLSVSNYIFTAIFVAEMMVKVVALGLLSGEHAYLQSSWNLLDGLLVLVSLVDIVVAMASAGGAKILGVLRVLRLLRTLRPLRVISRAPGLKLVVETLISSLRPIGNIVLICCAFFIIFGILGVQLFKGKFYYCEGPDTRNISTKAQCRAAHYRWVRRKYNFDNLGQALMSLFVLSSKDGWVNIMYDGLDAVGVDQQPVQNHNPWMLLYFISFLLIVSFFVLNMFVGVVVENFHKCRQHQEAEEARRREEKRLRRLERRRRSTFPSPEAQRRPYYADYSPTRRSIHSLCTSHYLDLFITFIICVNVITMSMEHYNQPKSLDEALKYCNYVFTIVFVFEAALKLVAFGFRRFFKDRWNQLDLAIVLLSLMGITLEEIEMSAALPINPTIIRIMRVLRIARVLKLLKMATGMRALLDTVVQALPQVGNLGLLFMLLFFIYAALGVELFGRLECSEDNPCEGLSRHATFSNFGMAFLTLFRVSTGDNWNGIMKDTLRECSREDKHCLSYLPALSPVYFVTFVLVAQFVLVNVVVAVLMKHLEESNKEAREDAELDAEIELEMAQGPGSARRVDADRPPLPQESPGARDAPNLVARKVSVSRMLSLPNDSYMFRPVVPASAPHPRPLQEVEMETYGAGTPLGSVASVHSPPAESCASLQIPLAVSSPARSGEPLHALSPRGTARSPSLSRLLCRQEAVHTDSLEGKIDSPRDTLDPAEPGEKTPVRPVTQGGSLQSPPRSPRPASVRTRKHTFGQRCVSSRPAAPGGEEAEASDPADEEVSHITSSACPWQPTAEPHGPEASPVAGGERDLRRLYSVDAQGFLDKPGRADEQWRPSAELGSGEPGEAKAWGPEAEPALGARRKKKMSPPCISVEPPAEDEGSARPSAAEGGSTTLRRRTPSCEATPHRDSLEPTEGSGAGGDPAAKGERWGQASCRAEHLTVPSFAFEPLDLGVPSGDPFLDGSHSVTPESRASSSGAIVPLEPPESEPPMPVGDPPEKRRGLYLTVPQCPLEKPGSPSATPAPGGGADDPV

Cytochrome P450 2C9, sequence (P11712 whole entry): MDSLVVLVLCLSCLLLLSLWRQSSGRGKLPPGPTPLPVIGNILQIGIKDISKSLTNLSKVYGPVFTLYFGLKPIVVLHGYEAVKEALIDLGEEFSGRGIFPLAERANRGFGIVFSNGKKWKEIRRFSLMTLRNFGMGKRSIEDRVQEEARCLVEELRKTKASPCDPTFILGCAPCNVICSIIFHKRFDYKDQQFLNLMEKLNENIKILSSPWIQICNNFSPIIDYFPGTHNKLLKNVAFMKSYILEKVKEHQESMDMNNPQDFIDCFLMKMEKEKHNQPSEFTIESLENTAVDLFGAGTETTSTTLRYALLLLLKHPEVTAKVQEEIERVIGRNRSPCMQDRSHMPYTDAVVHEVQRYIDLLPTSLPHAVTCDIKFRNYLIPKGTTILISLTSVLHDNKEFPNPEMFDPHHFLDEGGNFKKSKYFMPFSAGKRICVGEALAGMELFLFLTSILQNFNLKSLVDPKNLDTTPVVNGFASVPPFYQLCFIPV
Beta-galactosidase, sequence (Q8VNN2 whole entry): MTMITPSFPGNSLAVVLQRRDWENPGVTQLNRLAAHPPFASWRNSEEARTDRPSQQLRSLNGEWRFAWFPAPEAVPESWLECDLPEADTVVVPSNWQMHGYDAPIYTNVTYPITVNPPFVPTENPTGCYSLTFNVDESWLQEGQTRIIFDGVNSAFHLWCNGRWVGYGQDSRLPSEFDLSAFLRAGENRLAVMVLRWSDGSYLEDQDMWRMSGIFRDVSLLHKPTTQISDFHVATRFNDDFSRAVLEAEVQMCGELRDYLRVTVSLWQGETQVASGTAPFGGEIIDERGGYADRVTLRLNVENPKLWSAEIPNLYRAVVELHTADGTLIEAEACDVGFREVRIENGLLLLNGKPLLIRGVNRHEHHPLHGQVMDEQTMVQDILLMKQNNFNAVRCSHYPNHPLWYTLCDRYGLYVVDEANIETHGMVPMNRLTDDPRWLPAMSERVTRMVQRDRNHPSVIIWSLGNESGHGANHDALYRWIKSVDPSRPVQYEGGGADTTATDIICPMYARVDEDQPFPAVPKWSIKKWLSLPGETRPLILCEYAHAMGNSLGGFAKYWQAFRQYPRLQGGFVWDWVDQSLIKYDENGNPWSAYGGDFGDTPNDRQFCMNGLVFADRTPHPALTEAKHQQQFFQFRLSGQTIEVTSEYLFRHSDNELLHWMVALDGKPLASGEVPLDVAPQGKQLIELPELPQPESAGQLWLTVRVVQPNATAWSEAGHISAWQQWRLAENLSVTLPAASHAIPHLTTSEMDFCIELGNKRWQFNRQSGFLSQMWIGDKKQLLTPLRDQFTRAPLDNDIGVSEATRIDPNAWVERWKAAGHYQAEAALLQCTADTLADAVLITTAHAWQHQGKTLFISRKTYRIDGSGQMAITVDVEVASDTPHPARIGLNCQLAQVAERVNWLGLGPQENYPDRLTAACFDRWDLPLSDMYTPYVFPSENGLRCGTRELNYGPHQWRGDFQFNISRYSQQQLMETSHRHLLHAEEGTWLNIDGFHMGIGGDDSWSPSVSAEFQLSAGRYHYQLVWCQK
DNA dC->dU-editing enzyme APOBEC-3G, sequence (Q9HC16 whole entry): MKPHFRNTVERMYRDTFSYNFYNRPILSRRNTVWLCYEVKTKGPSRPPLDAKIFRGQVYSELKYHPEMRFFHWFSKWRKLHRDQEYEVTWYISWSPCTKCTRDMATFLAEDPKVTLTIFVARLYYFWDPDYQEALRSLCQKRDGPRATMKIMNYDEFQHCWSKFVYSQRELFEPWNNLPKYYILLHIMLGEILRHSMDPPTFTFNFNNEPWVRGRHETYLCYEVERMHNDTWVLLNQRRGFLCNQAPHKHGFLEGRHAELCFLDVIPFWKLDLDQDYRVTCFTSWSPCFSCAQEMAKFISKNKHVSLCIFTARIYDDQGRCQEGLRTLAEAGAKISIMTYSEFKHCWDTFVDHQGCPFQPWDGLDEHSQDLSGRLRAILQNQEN
DNA dC->dU-editing enzyme APOBEC-3A, sequence (P31941 whole entry, the tested form may be a part): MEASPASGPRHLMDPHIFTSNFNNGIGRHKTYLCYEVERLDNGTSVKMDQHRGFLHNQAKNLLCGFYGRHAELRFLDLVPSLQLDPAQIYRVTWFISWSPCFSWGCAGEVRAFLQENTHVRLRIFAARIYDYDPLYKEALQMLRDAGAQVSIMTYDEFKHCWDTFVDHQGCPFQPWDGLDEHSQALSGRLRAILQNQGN

In the case of `Nn1c(SCc2ccccc2)nc2c(cnn2-c2ccccc2)c1=O`, the IC50 [1] is reported as > 100 µM (inactive), the IC50 [2] is reported as > 100 µM (inactive) and the IC50 (Caspase-3) is reported as 36.1 µM (active). The IC50 [3] was 11.4 µM (active).
With `O=C1NNC(c2ccccc2)=N/C1=C\c1ccc(Cl)cc1` the IC50 [4] was 22.9 µM (active).
In the case of `Cc1ccc2nc(C)cc(C(=O)OCC(=O)c3ccc(Cl)c([N+](=O)[O-])c3)c2c1`, the EC50 (Beta-galactosidase) is reported as > 40 µM (inactive) and the IC50 [5] is reported as 13.2 µM (active).
With `Cc1cc(C)cc(-n2nnnc2SCC(=O)Nc2nc(-c3ccc(Cl)cc3)cs2)c1` the AC50 (Cytochrome P450 1A2) was 7.08 µM (inconclusive) and the AC50 (Cytochrome P450 2C9) was “inconclusive”.
`Cc1cccc(NC2=c3cccc(Cl)c3=NC2=O)c1` was tested, and the EC50 (Beta-galactosidase) was > 40 µM (inactive) and the IC50 [5] was > 40 µM (not active).
With `C[N+]1(C2CCC3CCCC2C3O)CCCCC1` (centres undefined) the IC50 [6] was 2.42 µM (active), the IC50 [7] was 6.61 µM (active) and the IC50 [8] was 2.69 µM (active).
For `CCN(CC)c1ccc(/C=C/c2nc3ccccc3s2)cc1`, the EC50 [9] was 6.85 µM (active) and the AC50 (Cytochrome P450 2C9) was “inconclusive”.
`O=C(Cn1cc(SCc2ccc(F)cc2)c2ccccc21)N1CCOCC1` was tested, and the IC50 [1] was 21.1 µM (active), the IC50 [2] was 23.2 µM (active) and the IC50 (Caspase-3) was 21.1 µM (active). The IC50 [3] was 6.95 µM (active).
With `Nc1c(N2CCCC2)c2ccccc2oc1=O` the EC50 (Beta-galactosidase) was > 40 µM (inactive) and the IC50 [5] was 13.7 µM (active).
With `O=C(CO)N/N=C/c1ccccc1F` the AC50 (Cytochrome P450 1A2) was 25.1 µM (inconclusive) and the AC50 (Cytochrome P450 2C9) was “inconclusive”.

Source: ChEMBL document CHEMBL1201862, “PubChem BioAssay data set” (2004)
